In patent EP4722207A1, “OXOISOINDOLINYL-SUBSTITUTED TETRAHYDROPYRIMIDINEDIONE DERIVATIVE AND USE THEREOF” (Gluetacs Therapeutics (Shanghai) Co., Ltd., priority 2023, dated 2024):

Assays:
[1] = molecular target: T1, WEE1 (Homo sapiens, UniProt P30291+Q96SW2); assay: Western-blot assay, substrate protein degradation in hPBMCs: WEE1; format: cell-based; details: for substrate protein remaining % WEE1: 24 hours of compound treatment, 50 nM and 500 nM; for WEE1 substrate protein remaining %: compounds at 50 nM and 500 nM, 24 hours
T1 construct: effects of the compounds of the present disclosure on the expression of target proteins in cells; endogenous in cells; host or cells: human PBMCs (hPBMCs)

[2] = molecular target: T2, IKZF1 (Homo sapiens, UniProt Q13422+Q96SW2); assay: Western-blot assay, substrate protein degradation in hPBMCs: IKZF1; format: cell-based; details: for substrate protein remaining % IKZF1: 24 hours of compound treatment, 50 nM and 500 nM; for IKZF1 substrate protein remaining %: compounds at 50 nM and 500 nM, 24 hours
T2 construct: effects of the compounds of the present disclosure on the expression of target proteins in cells; endogenous in cells; host or cells: human PBMCs (hPBMCs)

[3] = molecular target: T3, IKZF2 (Homo sapiens, UniProt Q96SW2+Q9UKS7); assay: Western-blot assay, substrate protein degradation in hPBMCs: IKZF2; format: cell-based; details: for substrate protein remaining % IKZF2: 24 hours of compound treatment, 50 nM and 500 nM; for IKZF2 substrate protein remaining %: compounds at 50 nM and 500 nM, 24 hours
T3 construct: effects of the compounds of the present disclosure on the expression of target proteins in cells; endogenous in cells; host or cells: human PBMCs (hPBMCs)

[4] = molecular target: T4, IKZF3 (Homo sapiens, UniProt Q96SW2+Q9UKT9); assay: Western-blot assay, substrate protein degradation in hPBMCs: IKZF3; format: cell-based; details: for substrate protein remaining % IKZF3: 24 hours of compound treatment, 50 nM and 500 nM; for IKZF3 substrate protein remaining %: compounds at 50 nM and 500 nM, 24 hours
T4 construct: effects of the compounds of the present disclosure on the expression of target proteins in cells; endogenous in cells; host or cells: human PBMCs (hPBMCs)

[5] = molecular target: T5, CK1α (Homo sapiens, UniProt P48729+Q96SW2); assay: Western-blot assay, substrate protein degradation in hPBMCs: CK1α; format: cell-based; details: for substrate protein remaining % CK1α: 24 hours of compound treatment, 50 nM and 500 nM; for CK1α substrate protein remaining %: compounds at 50 nM and 500 nM, 24 hours
T5 construct: effects of the compounds of the present disclosure on the expression of target proteins in cells; endogenous in cells; host or cells: human PBMCs (hPBMCs)

[6] = molecular target: T6, GSPT1 (Homo sapiens, UniProt P15170+Q96SW2); assay: Western-blot assay, substrate protein degradation in hPBMCs: GSPT1; format: cell-based; details: for substrate protein remaining % GSPT1: 24 hours of compound treatment, 50 nM and 500 nM; for GSPT1 substrate protein remaining %: compounds at 50 nM and 500 nM, 24 hours
T6 construct: effects of the compounds of the present disclosure on the expression of target proteins in cells; endogenous in cells; host or cells: human PBMCs (hPBMCs)

[7] = tested on: H292; assay: Cell viability assay (CellTiter-Meiluncell Luminescent), tumor cell proliferation, H292; details: Homo sapiens, NCI-H292, 96 h; for inhibition at 0.01 µM: read-out: Inhibition Rate at 10 nM (%); for inhibition at 0.5 µM: read-out: Inhibition Rate at 500 nM (%)
[8] = tested on: MV-4-11; assay: Cell viability assay (CellTiter-Meiluncell Luminescent), tumor cell proliferation, MV-4-11; details: Homo sapiens, MV4-11, 96 h; for inhibition at 0.01 µM: read-out: Inhibition Rate at 10 nM (%); for inhibition at 0.5 µM: read-out: Inhibition Rate at 500 nM (%); for IC50: read-out: inhibitory activity (IC50, nM) against tumor cells proliferation, MV-4-11

T5 sequence (P48729 whole entry): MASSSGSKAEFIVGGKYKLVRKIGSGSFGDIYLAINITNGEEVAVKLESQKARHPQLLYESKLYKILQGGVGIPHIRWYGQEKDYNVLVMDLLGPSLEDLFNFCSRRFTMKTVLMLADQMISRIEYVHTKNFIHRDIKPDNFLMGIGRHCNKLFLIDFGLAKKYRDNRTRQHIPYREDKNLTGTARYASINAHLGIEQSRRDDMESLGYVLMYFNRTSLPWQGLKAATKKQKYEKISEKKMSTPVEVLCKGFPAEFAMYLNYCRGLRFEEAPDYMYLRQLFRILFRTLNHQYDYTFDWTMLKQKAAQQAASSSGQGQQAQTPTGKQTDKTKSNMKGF
T5 sequence (Q96SW2 whole entry): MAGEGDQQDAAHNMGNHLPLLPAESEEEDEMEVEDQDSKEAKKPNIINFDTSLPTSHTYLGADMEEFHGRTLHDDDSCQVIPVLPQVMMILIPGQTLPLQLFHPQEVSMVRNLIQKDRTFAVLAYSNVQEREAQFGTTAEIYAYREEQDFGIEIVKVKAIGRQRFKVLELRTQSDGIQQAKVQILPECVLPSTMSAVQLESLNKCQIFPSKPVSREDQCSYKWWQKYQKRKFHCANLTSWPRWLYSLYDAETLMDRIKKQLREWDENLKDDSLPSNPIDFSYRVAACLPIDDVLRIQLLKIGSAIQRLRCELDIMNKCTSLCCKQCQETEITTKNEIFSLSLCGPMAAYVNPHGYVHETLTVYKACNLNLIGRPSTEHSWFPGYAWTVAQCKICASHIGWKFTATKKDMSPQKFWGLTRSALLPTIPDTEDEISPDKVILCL
T5 sequence (Q16531 whole entry partner): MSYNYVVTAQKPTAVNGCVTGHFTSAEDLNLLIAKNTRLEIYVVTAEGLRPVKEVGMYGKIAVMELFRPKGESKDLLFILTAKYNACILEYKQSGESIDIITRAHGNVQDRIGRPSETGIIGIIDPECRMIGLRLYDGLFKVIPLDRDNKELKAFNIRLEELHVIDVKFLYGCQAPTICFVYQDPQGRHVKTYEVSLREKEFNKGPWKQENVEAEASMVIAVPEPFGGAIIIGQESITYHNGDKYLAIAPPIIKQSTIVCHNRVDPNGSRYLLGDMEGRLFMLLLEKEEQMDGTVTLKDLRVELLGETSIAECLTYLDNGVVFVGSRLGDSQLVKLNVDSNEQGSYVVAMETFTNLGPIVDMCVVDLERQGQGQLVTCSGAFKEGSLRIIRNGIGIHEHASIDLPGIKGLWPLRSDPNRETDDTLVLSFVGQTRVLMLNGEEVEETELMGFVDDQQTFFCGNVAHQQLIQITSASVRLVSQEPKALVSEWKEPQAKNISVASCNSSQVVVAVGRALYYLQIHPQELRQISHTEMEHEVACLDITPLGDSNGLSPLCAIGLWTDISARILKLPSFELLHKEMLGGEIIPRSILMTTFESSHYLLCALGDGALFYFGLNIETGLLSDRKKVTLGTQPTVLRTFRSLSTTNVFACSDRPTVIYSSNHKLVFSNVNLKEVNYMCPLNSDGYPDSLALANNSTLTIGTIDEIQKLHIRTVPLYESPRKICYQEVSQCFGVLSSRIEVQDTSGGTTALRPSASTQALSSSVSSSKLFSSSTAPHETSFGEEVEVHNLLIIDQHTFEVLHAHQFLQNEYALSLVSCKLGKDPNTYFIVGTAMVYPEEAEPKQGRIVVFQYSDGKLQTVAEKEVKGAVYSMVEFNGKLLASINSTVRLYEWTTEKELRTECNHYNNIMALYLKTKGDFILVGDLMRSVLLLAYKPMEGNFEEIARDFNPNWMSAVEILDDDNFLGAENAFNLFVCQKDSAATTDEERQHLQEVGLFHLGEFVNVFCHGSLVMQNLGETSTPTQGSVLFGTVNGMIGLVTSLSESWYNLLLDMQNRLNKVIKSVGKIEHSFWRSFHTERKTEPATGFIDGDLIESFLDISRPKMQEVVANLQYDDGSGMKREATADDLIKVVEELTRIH
T3 sequence (Q9UKS7 whole entry): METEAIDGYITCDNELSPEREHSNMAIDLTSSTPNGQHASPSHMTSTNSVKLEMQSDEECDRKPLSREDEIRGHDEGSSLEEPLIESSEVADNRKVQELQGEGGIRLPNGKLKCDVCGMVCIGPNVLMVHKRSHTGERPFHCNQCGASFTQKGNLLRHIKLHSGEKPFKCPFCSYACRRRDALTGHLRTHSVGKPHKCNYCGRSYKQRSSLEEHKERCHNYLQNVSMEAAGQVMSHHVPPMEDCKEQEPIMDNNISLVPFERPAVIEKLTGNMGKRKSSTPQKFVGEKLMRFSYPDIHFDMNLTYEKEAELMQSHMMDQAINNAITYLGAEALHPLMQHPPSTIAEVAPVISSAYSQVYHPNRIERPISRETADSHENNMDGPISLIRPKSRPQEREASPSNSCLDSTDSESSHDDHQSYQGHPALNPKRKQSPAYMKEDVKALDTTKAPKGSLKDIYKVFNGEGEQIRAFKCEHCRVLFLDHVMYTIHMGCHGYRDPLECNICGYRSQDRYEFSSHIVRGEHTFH
T3 sequence (Q96SW2 whole entry): as the sequence (Q96SW2 whole entry) above
T3 sequence (Q16531 whole entry partner): as the sequence (Q16531 whole entry partner) above
T1 sequence (P30291 whole entry): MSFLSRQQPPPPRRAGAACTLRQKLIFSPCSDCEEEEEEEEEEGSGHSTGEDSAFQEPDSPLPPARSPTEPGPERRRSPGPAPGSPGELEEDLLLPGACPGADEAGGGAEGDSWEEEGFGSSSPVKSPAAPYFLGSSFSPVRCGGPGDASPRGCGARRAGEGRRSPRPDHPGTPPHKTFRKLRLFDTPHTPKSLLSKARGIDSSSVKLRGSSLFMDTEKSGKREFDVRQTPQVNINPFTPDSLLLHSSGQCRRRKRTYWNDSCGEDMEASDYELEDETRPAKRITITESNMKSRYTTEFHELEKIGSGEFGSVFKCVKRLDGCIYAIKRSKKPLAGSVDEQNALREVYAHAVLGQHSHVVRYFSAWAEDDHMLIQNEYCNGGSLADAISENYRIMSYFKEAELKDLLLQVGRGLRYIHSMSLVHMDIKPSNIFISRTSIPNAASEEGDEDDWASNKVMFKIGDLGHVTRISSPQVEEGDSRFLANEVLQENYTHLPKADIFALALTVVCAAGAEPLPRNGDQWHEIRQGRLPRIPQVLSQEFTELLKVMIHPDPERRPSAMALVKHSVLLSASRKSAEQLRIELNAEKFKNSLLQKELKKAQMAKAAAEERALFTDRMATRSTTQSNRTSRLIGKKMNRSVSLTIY
T1 sequence (Q96SW2 whole entry): as the sequence (Q96SW2 whole entry) above
T1 sequence (Q16531 whole entry partner): as the sequence (Q16531 whole entry partner) above
T6 sequence (P15170 whole entry): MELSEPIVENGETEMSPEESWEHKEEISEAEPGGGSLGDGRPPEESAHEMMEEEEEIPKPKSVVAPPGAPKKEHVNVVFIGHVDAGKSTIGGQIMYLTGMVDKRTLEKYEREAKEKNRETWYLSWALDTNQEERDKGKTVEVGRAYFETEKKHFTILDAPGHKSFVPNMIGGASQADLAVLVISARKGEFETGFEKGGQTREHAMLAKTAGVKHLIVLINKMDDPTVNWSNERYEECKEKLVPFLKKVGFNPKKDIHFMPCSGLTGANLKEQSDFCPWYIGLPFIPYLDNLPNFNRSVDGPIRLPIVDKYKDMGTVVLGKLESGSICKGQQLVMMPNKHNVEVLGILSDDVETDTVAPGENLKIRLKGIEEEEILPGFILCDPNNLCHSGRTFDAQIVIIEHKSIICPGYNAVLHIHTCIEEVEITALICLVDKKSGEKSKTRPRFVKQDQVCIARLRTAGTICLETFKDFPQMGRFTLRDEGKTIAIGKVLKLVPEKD
T6 sequence (Q96SW2 whole entry): as the sequence (Q96SW2 whole entry) above
T6 sequence (Q16531 whole entry partner): as the sequence (Q16531 whole entry partner) above
T2 sequence (Q13422 whole entry): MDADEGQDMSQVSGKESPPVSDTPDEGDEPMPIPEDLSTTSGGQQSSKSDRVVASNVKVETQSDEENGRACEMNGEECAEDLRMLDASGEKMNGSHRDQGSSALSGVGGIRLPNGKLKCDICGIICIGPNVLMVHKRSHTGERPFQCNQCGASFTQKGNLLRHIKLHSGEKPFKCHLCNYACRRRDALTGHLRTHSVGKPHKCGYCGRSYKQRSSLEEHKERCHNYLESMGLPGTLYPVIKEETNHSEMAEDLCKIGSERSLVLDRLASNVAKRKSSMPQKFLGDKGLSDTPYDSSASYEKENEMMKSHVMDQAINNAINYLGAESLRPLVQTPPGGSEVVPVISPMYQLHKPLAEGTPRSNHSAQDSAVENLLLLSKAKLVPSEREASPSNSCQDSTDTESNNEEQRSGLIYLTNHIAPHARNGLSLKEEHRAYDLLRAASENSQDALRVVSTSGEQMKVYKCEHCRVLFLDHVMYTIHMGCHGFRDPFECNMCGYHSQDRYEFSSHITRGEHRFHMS
T2 sequence (Q96SW2 whole entry): as the sequence (Q96SW2 whole entry) above
T2 sequence (Q16531 whole entry partner): as the sequence (Q16531 whole entry partner) above

Row | SMILES | substrate protein remaining % WEE1 [1] | substrate protein remaining % IKZF1 [2] | substrate protein remaining % IKZF2 [3] | substrate protein remaining % IKZF3 [4] | substrate protein remaining % CK1α [5] | substrate protein remaining % GSPT1 [6] | inhibition at 0.01 µM [7] [%] | inhibition at 0.5 µM [7] [%] | inhibition at 0.01 µM [8] [%] | inhibition at 0.5 µM [8] [%] | WEE1 substrate protein remaining % [1] | IKZF1 substrate protein remaining % [2] | IKZF2 substrate protein remaining % [3] | IKZF3 substrate protein remaining % [4] | CK1α substrate protein remaining % [5] | GSPT1 substrate protein remaining % [6] | IC50 [8] [nM]
1 | Cc1cc2c(C3CCN(Cc4ccc5c(c4)C(=O)N(N4CCC(=O)NC4=O)C5=O)CC3)ncnc2s1 [GT-08107, 2-(2,4-dioxotetrahydropyrimidin-1(2H)-yl)-5-((4-(6-methylthieno[2,3-d]pyrimidin-4-yl)piperidin-1-yl)methyl)isoindoline-1,3-dione] | A (0% ≤ substrate protein remaining % ≤ 80%) | A (0% ≤ substrate protein remaining % ≤ 80%) | A (0% ≤ substrate protein remaining % ≤ 80%) | A (0% ≤ substrate protein remaining % ≤ 80%) | A (0% ≤ substrate protein remaining % ≤ 80%) | A (0% ≤ substrate protein remaining % ≤ 80%) | 5 to 10 | 10 to 15 | 30 to 40 | 40 to 60 |  |  |  |  |  |  | 
2 | O=C1CCN(N2Cc3cc(CN4CCN(c5ccc(F)cc5)CC4)ccc3C2=O)C(=O)N1 [GT-06702, 1-(5-((4-(4-fluorophenyl)piperazin-1-yl)methyl)-1-oxoisoindolin-2-yl)dihydropyrimidine-2,4(1H,3H)-dione] |  |  |  |  |  |  |  |  |  |  | B ("B" is defined as 80%< substrate protein remaining %≤ 100%) | B ("B" is defined as 80%< substrate protein remaining %≤ 100%) | B ("B" is defined as 80%< substrate protein remaining %≤ 100%) | B ("B" is defined as 80%< substrate protein remaining %≤ 100%) | A ("A" is defined as 0% ≤ substrate protein remaining % ≤ 80%) | A ("A" is defined as 0% ≤ substrate protein remaining % ≤ 80%) | 500 to 1000
3 | O=C1CCN(N2Cc3cc(CN4CCN(c5cccc(F)c5F)CC4)ccc3C2=O)C(=O)N1 [GT-06777, 1-(5-((4-(2,3-difluorophenyl)piperazin-1-yl)methyl)-1-oxoisoindolin-2-yl)dihydropyrimidine-2,4(1H,3H)-dione] |  |  |  |  |  |  |  |  |  |  | A ("A" is defined as 0% ≤ substrate protein remaining % ≤ 80%) | B ("B" is defined as 80%< substrate protein remaining %≤ 100%) | A ("A" is defined as 0% ≤ substrate protein remaining % ≤ 80%) | B ("B" is defined as 80%< substrate protein remaining %≤ 100%) | A ("A" is defined as 0% ≤ substrate protein remaining % ≤ 80%) | A ("A" is defined as 0% ≤ substrate protein remaining % ≤ 80%) | 300 to 500
4 | Cc1sc2ncnc(N3CCCN(Cc4ccc5c(c4)C(=O)N(N4CCC(=O)NC4=O)C5=O)CC3)c2c1C [GT-08095, 5-((4-(5,6-dimethylthieno[2,3-d]pyrimidin-4-yl)-1,4-diazepan-1-yl)methyl)-2-(2,4-dioxotetrahydropyrimidin-1(2H)-yl)isoindoline-1,3-dione] | A (0% ≤ substrate protein remaining % ≤ 80%) | B (80%< substrate protein remaining %≤ 100%) | B (80%< substrate protein remaining %≤ 100%) | B (80%< substrate protein remaining %≤ 100%) | A (0% ≤ substrate protein remaining % ≤ 80%) | B (80%< substrate protein remaining %≤ 100%) |  |  | 25 to 30 | 18 to 25 |  |  |  |  |  |  | 
5 | COc1cccc(N2CCN(Cc3ccc4c(c3)CN(N3CCC(=O)NC3=O)C4=O)CC2)c1 [GT-06699, 1-(5-((4-(3-methoxyphenyl)piperazin-1-yl)methyl)-1-oxoisoindolin-2-yl)dihydropyrimidine-2,4(1H,3H)-dione] |  |  |  |  |  |  |  |  |  |  | B ("B" is defined as 80%< substrate protein remaining %≤ 100%) | B ("B" is defined as 80%< substrate protein remaining %≤ 100%) | B ("B" is defined as 80%< substrate protein remaining %≤ 100%) | B ("B" is defined as 80%< substrate protein remaining %≤ 100%) | B ("B" is defined as 80%< substrate protein remaining %≤ 100%) | A ("A" is defined as 0% ≤ substrate protein remaining % ≤ 80%) | 100 to 300
6 | Cc1nc(N2CCN(Cc3ccc4c(c3)CN(N3CCC(=O)NC3=O)C4=O)CC2)c2c3c(sc2n1)CCCC3 [GT-08068, 1-(5-((4-(2-methyl-5,6,7,8-tetrahydrobenzo[4,5]thieno[2,3-d]pyrimidin-4-yl)piperazin-1-yl)methyl)-1-oxoisoindolin-2-yl)dihydropyrimidine-2,4(1H,3H)-dione] | B (80%< substrate protein remaining %≤ 100%) | B (80%< substrate protein remaining %≤ 100%) | A (0% ≤ substrate protein remaining % ≤ 80%) | B (80%< substrate protein remaining %≤ 100%) | A (0% ≤ substrate protein remaining % ≤ 80%) | B (80%< substrate protein remaining %≤ 100%) | 20 to 40 | 20 to 40 | 18 to 25 | 18 to 25 |  |  |  |  |  |  | 
7 | Cc1cc2c(N3CCN(Cc4ccc5c(c4)C(=O)N(N4CCC(=O)NC4=O)C5=O)CC3)ncnc2s1 [GT-08092, 2-(2,4-dioxotetrahydropyrimidin-1(2H)-yl)-5-((4-(6-methylthieno[2,3-d]pyrimidin-4-yl)piperazin-1-yl)methyl)isoindoline-1,3-dione] | A (0% ≤ substrate protein remaining % ≤ 80%) | B (80%< substrate protein remaining %≤ 100%) | B (80%< substrate protein remaining %≤ 100%) | B (80%< substrate protein remaining %≤ 100%) | A (0% ≤ substrate protein remaining % ≤ 80%) | A (0% ≤ substrate protein remaining % ≤ 80%) |  |  | 10 to 18 | 30 to 40 |  |  |  |  |  |  | 
8 | O=C1CCN(N2Cc3cc(CN4CCN(c5ccccc5Cl)CC4)ccc3C2=O)C(=O)N1 [GT-06703, 1-(5-((4-(2-chlorophenyl)piperazin-1-yl)methyl)-1-oxoisoindolin-2-yl)dihydropyrimidine-2,4(1H,3H)-dione] |  |  |  |  |  |  |  |  |  |  | B ("B" is defined as 80%< substrate protein remaining %≤ 100%) | B ("B" is defined as 80%< substrate protein remaining %≤ 100%) | B ("B" is defined as 80%< substrate protein remaining %≤ 100%) | B ("B" is defined as 80%< substrate protein remaining %≤ 100%) | A ("A" is defined as 0% ≤ substrate protein remaining % ≤ 80%) | A ("A" is defined as 0% ≤ substrate protein remaining % ≤ 80%) | 500 to 1000
9 | O=C1CCN(N2Cc3cc(CN4CCC(c5cccc(C(F)(F)F)c5)CC4)ccc3C2=O)C(=O)N1 [GT-06892, 1-(1-oxo-5-((4-(3-(trifluoromethyl)phenyl)piperidin-1-yl)methyl)isoindolin-2-yl)dihydropyrimidine-2,4(1H,3H)-dione] |  |  |  |  |  |  |  |  |  |  | B ("B" is defined as 80%< substrate protein remaining %≤ 100%) | A ("A" is defined as 0% ≤ substrate protein remaining % ≤ 80%) | A ("A" is defined as 0% ≤ substrate protein remaining % ≤ 80%) | B ("B" is defined as 80%< substrate protein remaining %≤ 100%) | B ("B" is defined as 80%< substrate protein remaining %≤ 100%) | A ("A" is defined as 0% ≤ substrate protein remaining % ≤ 80%) | 500 to 1000
10 | O=C1CCN(N2Cc3cc(CN4CCN(c5ncnc6sc(-c7ccccc7)cc56)CC4)ccc3C2=O)C(=O)N1 [GT-08064, 1-(1-oxo-5-((4-(6-phenylthieno[2,3-d]pyrimidin-4-yl)piperazin-1-yl)methyl)isoindolin-2-yl)dihydropyrimidine-2,4(1H,3H)-dione] | B (80%< substrate protein remaining %≤ 100%) | B (80%< substrate protein remaining %≤ 100%) | A (0% ≤ substrate protein remaining % ≤ 80%) | B (80%< substrate protein remaining %≤ 100%) | B (80%< substrate protein remaining %≤ 100%) | B (80%< substrate protein remaining %≤ 100%) |  |  | 25 to 30 | 10 to 18 |  |  |  |  |  |  | 
